Reference: patent US9278912B2, “C13-hydroxy derivatives of oleanolic acid and methods of use thereof” (priority 2012, dated 2016)

Tested on: IFNγ-induced NO production in RAW264.7 mouse macrophages
Test: Suppression of IFNγ-induced NO production (Nitric Oxide Production and Cell Viability Assay)
Assay type: cell-based
Conditions: RAW264.7 cells, 2 h pretreatment, then IFNγ 24 h, Griess reagent, normalized to cell viability (WST-1)
Description: Assay results for the suppression of IFNγ-induced NO production are shown for several of the compounds of the present invention in Table 1 below. In the right-hand column of this table under the RAW264.7 heading, the results are compared to those of bardoxolone methyl (RTA 402, CDDO-Me). Details regarding this assay are provided in the Examples section below. Nitric Oxide Production and Cell Viability Assay. […] On the next day, cells were pretreated with DMSO or drug (0-200 nM dose range) for 2 hours, and then treated with recombinant mouse IFNγ (R&D Systems) for 24 hours. Nitric Oxide concentration in media was determined using the Griess reagent system (Promega). Cell viability was determined using WST-1 reagent (Roche). IC50 values were determined based on the suppression of IFNγ induced Nitric Oxide production normalized to cell viability.

Structure (SMILES)	IC50
COC(=O)[C@]12CCC(C)(C)C[C@H]1[C@@]1(O)C(=O)C=C3[C@@]4(C)C=C(C#N)C(=O)C(C)(C)[C@@H]4CC[C@@]3(C)[C@]1(C)CC2 [TX63421]	2.3 nM
CCOC(=O)[C@]12CCC(C)(C)C[C@H]1[C@@]1(O)C(=O)C=C3[C@@]4(C)C=C(C#N)C(=O)C(C)(C)[C@@H]4CC[C@@]3(C)[C@]1(C)CC2 [TX63469]	2.2 nM
CCCCC1O[C@]23C(=O)C=C4[C@@]5(C)C=C(C#N)C(=O)C(C)(C)[C@@H]5CC[C@@]4(C)[C@]2(C)CC[C@]12CCC(C)(C)C[C@H]23 (stereo partly shown) [TX63484]	37 nM
CC1(C)CC[C@]2(CO)CC[C@]3(C)[C@](O)([C@H](O)C=C4[C@@]5(C)C=C(C#N)C(=O)C(C)(C)[C@@H]5CC[C@]43C)[C@@H]2C1 [TX63489]	61 nM
CC1(C)CC[C@]2(CO)CC[C@@]3(C)[C@]4(C)CC[C@H]5C(C)(C)C(=O)C(C#N)=C[C@]5(C)C4=CC(=O)[C@]3(O)[C@@H]2C1 [TX63490]	1.5 nM
CC(C)C1O[C@]23C(=O)C=C4[C@@]5(C)C=C(C#N)C(=O)C(C)(C)[C@@H]5CC[C@@]4(C)[C@]2(C)CC[C@]12CCC(C)(C)C[C@H]23 (stereo partly shown) [TX63496]	37 nM
CC(=O)OC[C@]12CCC(C)(C)C[C@H]1[C@@]1(O)[C@H](OC(C)=O)C=C3[C@@]4(C)C=C(C#N)C(=O)C(C)(C)[C@@H]4CC[C@@]3(C)[C@]1(C)CC2 [TX63498]	24 nM
CC(=O)OC[C@]12CCC(C)(C)C[C@H]1[C@@]1(O)C(=O)C=C3[C@@]4(C)C=C(C#N)C(=O)C(C)(C)[C@@H]4CC[C@@]3(C)[C@]1(C)CC2 [TX63499]	2.1 nM
CC1(C)CC[C@]2(C(N)=O)CC[C@@]3(C)[C@]4(C)CC[C@H]5C(C)(C)C(=O)C(C#N)=C[C@]5(C)C4=CC(=O)[C@]3(O)[C@@H]2C1 [TX63530]	1.4 nM
CCNC(=O)[C@]12CCC(C)(C)C[C@H]1[C@@]1(O)C(=O)C=C3[C@@]4(C)C=C(C#N)C(=O)C(C)(C)[C@@H]4CC[C@@]3(C)[C@]1(C)CC2 [TX63536]	5.6 nM
